In patent US7632844B2, “2-hydroxy-6-phenylphenanthridines as PDE-4 inhibitors” (Nycomed GmbH, priority 2002, dated 2009):

Tests used:
[1] = system: PDE4 (cytosol from human neutrophils); assay: Inhibition of PDE4 activity, Method a ([3H]cAMP hydrolysis, cytosol from human neutrophils); type: biochemical; design: unit not given here; details: 0.5 μM cAMP, Motapizone 1 μM
Experimental: PDE4 activity was determined as described by Thompson et al. (Adv Cycl Nucl Res 10: 69-92, 1979) with some modifications (Bauer and Schwabe, Naunyn-Schmiedeberg's Arch Pharmacol 311: 193-198, 1980). At a final assay volume of 200 μl (96 well microtiter plates) the assay mixture contained 20 mM Tris (pH 7.4), 5 mM MgCl2, 0.5 μM cAMP, [^3H]cAMP (about 30,000 cpm/assay), the test compound and an aliquot of cytosol from human neutrophils which mainly contains PDE4 activity as described by Schudt et al. (Naunyn-Schmiedeberg's Arch Pharmacol 344: 682-690, 1991); the PDE3-specific inhibitor Motapizone (1 μM) was included to suppress PDE3 activity originating from contaminating platelets. Serial dilutions of the compounds were prepared in DMSO and further diluted 1:100 (v/v) in the assays to obtain the desired final concentrations of the inhibitors at a DMSO concentration of 1% (v/v) which by itself only slightly affected PDE4 activity.
After preincubation for 5 min at 37° C., the reaction was started by the addition of substrate (cAMP) and the assays were incubated for further 15 min at 37° C. 50 μl of 0.2 N HCl was added to stop the reaction and the assays were left on ice for about 10 min. Following incubation with 25 μg 5′-nucleotidase (Crotalus atrox snake venom) for 10 min at 37° C., the assays were loaded on QAE Sephadex A-25 (1 ml bed volume). The columns were eluted with 2 ml of 30 mM ammonium formiate (pH 6.0) and the eluate was counted for radioactivity. Results were corrected for blank values (measured in the presence of denatured protein) which were below 5% of total radioactivity. […] The IC50-values for the compounds according to the invention for the inhibition of the PDE4 activity were determined from the concentration-inhibition curves by nonlinear-regression.

SMILES	melting point [°C]	Inhibition of the PDE4 activity, −log IC50 [1]
COc1cc2c(cc1OC)C1CC(O)CCC1N=C2c1ccc(C(=O)O)cc1 (racemic) [Compound 12, (±)-(2RS,4aRS,10bRS)-6-(4-Carboxyphenyl)-8,9-dimethoxy-(1,2,3,4,4a,10b)-hexahydro-phenanthridin-2-ol]	172 to 183	8.25
COc1cc2c(cc1OC)C1CC(O)CCC1N=C2c1ccc(N(C)C)cc1 (racemic) [Compound 9, (±)-(2RS,4aRS,10bRS)-6-(4-Dimethylaminophenyl)-8,9-dimethoxy-(1,2,3,4,4a,10b)-hexahydrophenanthridin-2-ol]	115 to 121	7.13
COc1ccc(C2=NC3CCC(O)CC3c3cc(OC)c(OC)cc32)cc1OC (racemic) [Compound 10, (±)-(2RS,4aRS,10bRS)-6-(3,4-Dimethoxyphenyl)-8,9-dimethoxy-(1,2,3,4,4a,10b)-hexahydrophenanthridin-2-ol]	104 to 110	8.71
COc1cc2c(cc1OC)C1CC(OC(C)=O)CCC1N=C2c1ccc([N+](=O)[O-])cc1 (racemic) [Compound 5, (±)-Acetic acid (2RS,4aRS,10bRS)-6-(4-nitrophenyl)-8,9-dimethoxy-(1,2,3,4,4a,10b)-hexahydrophenanthridin-2-yl ester]	77 to 88	7.09
COc1cc2c(cc1OC)C1CC(O)CCC1N=C2c1ccc([N+](=O)[O-])cc1 (racemic) [Compound 11, (±)-(2RS,4aRS, 10bRS)-6-(4-Nitrophenyl)-8,9-dimethoxy-(1,2,3,4,4a,10b)-hexahydrophenanthridin-2-ol]	178 to 181	9.11
COC(=O)c1ccc(C2=NC3CCC(O)CC3c3cc(OC)c(OC)cc32)cc1 (racemic) [Compound 8, (±)-(2RS,4aRS,10bRS)-6-(4-Methoxycarbonylphenyl)-8,9-dimethoxy-(1,2,3,4,4a,10b)-hexahydrophenanthridin-2-ol]	94 to 105	9.21

More lines, now with the values ahead:

melting point [°C]	Inhibition of the PDE4 activity, −log IC50 [1]	SMILES
83 to 92	8.98	COc1cc2c(cc1OC)C1CC(O)CCC1N=C2c1ccc(OCC2CC2)c(OCC2CC2)c1 (racemic) [Compound 7, (±)-(2RS,4aRS,10bRS)-6-(3,4-Bis-cyclopropylmethoxyphenyl)-8,9-dimethoxy-(1,2,3,4,4a,10b)-hexahydrophenanthridin-2-ol]
–	7.26	COc1cc2c(cc1OC)C1CC(OC(C)=O)CCC1N=C2c1ccc(OCC2CC2)c(OCC2CC2)c1 (racemic) [Compound 6, (±)-Acetic acid (2SR,4aRS,10bRS)-6-(3,4-bis-cyclopropylmethoxyphenyl)-8,9-dimethoxy-(1,2,3,4,4a,10b)-hexahydrophenanthridin-2-yl ester]
114 to 118	8.12	COc1cc2c(cc1OC)C1CC(O)CCC1N=C2c1ccc(OCC2CC2)c(OCC2CC2)c1 (racemic) [Compound 13, (±)-(2SR,4aRS, 10bRS)-6-(3,4-Bis-cyclopropylmethoxyphenyl)-8,9-dimethoxy-(1,2,3,4,4a,10b)-hexahydrophenanthridin-2-ol]
